The record followed here is US20240124417A1, “COMPOUNDS USEFUL AS IMMUNOMODULATORS” (Bristol-Myers Squibb Company, priority 2019, published 2024).

This test addresses T1, PD-1/PD-L1 (Homo sapiens, UniProt Q9NZQ7).
T1 construct: TVMV protease site linker (C); made in house; host or cells: HEK293T cells
The test can be described thus: PD-1/PD-L1 Homogenous Time-Resolved Fluorescence (HTRF) binding assay. Particulars: PD-L1-His 10 nM, PD-1-Ig 20 nM. The method, boiled down:
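Time-resolved FRET read-out using Eu-cryptate anti-Ig (1 nM final) and APC anti-His (20 nM final). Tagged extracellular domains were used in BSA/Tween-20-supplemented dPBS, with compound pre-incubated 15 min with PD-L1-His (10 nM) before PD-1-Ig (20 nM) was added for 15 min. Other human pairs: PD-L2-His 5 nM with PD-1-Ig 20 nM; PD-L1-Ig 10 nM with CD80-His 100 nM.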
A general note: Time-resolved FRET reads energy transfer from a long-lived donor to a nearby acceptor.

T1 sequence (Q9NZQ7 18-239): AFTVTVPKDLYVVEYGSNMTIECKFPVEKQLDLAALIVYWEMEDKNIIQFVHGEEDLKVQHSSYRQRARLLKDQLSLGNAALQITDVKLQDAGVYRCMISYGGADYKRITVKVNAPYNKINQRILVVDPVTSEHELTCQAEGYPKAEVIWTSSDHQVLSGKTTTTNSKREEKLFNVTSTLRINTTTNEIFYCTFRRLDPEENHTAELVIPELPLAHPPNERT

Compound `Cc1c(COc2cc(OCc3cncc(C#N)c3)c(CN(C)Cc3cccnn3)cc2Cl)cccc1-c1cccc(OCCCN2CC[C@@H](O)C2)c1C` [Example 2031, (R)-5-((4-chloro-5-((3′-(3-(3-hydroxypyrrolidin-1-yl)propoxy)-2,2′-dimethyl-[1,1′-biphenyl]-3-yl)methoxy)-2-((methyl(pyridazin-3-ylmethyl)amino)methyl)phenoxy)methyl)nicotinonitrile] returned a half-maximal inhibitory concentration (IC50) of 0.2 nM.
In the case of `Cc1c(COc2cc(OCc3cncc(C#N)c3)c(CN(C)Cc3cncnc3)cc2Cl)cccc1-c1cccc(OCCCN2CC[C@@H](O)C2)c1C` [Example 2032, (R)-5-((4-chloro-5-((3′-(3-(3-hydroxypyrrolidin-1-yl)propoxy)-2,2′-dimethyl-[1,1′-biphenyl]-3-yl)methoxy)-2-((methyl(pyrimidin-5-ylmethyl)amino)methyl)phenoxy)methyl)nicotinonitrile], the IC50 is 2.5 nM.
`CCN(CCO)CCCOc1cccc(-c2cccc(COc3cc(OCc4cncc(C#N)c4)c(CNCc4c[nH]cn4)cc3Cl)c2C)c1C` [Example 2033, 5-((2-((((1H-imidazol-4-yl)methyl)amino)methyl)-4-chloro-5-((3′-(3-(ethyl(2-hydroxyethyl)amino)propoxy)-2,2′-dimethyl-[1,1′-biphenyl]-3-yl)methoxy)phenoxy)methyl)nicotinonitrile] gave an IC50 of 2.9 nM.
With `Cc1c(COc2cc(OCc3cncc(C#N)c3)c(CNCc3ccnc(C#N)n3)cc2Cl)cccc1-c1cccc(OCCCN2CC[C@@H](O)C2)c1C` [Example 2040, (R)-4-(((5-chloro-2-((5-cyanopyridin-3-yl)methoxy)-4-((3′-(3-(3-hydroxypyrrolidin-1-yl)propoxy)-2,2′-dimethyl-[1,1′-biphenyl]-3-yl)methoxy)benzyl)amino)methyl)pyrimidine-2-carbonitrile] the figure was 8.2 nM; with `Cc1c(COc2cc(OCc3cncc(C#N)c3)c(CNCc3ccnc(C(N)=O)n3)cc2Cl)cccc1-c1cccc(OCCCN2CC[C@@H](O)C2)c1C` [Example 2041, (R)-4-(((5-chloro-2-((5-cyanopyridin-3-yl)methoxy)-4-((3′-(3-(3-hydroxypyrrolidin-1-yl)propoxy)-2,2′-dimethyl-[1,1′-biphenyl]-3-yl)methoxy)benzyl)amino)methyl)pyrimidine-2-carboxamide], 1.9 nM.
With `Cc1[nH]cnc1COc1cc(OCc2cccc(-c3cccc(OCCCN4CC[C@@H](O)C4)c3C)c2C)c(Cl)cc1CNCc1ccnc(C#N)n1` [Example 2042, (R)-4-(((5-chloro-4-((3′-(3-(3-hydroxypyrrolidin-1-yl)propoxy)-2,2′-dimethyl-[1,1′-biphenyl]-3-yl)methoxy)-2-((5-methyl-1H-imidazol-4-yl)methoxy)benzyl)amino)methyl)pyrimidine-2-carbonitrile] the figure was 89.5 nM; with `Cc1c(COc2cc(OCc3ncn(C(c4ccccc4)(c4ccccc4)c4ccccc4)c3C)c(CNCc3ccnc(C#N)n3)cc2Cl)cccc1-c1cccc(OCCCN2CC[C@@H](O)C2)c1C` [Example 2043, (R)-4-(((5-chloro-4-((3′-(3-(3-hydroxypyrrolidin-1-yl)propoxy)-2,2′-dimethyl-[1,1′-biphenyl]-3-yl)methoxy)-2-((5-methyl-1-trityl-1H-imidazol-4-yl)methoxy)benzyl)amino)methyl)pyrimidine-2-carbonitrile], more than 10000 nM.
In the case of `Cc1c(COc2cc(OCc3cncc(C#N)c3)c(CNCc3ccnc(C#N)n3)cc2Cl)cccc1-c1cccc(OCCCN2CCC(O)(CO)CC2)c1Cl` [Example 2044, 4-(((5-chloro-4-((2′-chloro-3′-(3-(4-hydroxy-4-(hydroxymethyl)piperidin-1-yl)propoxy)-2-methyl-[1,1′-biphenyl]-3-yl)methoxy)-2-((5-cyanopyridin-3-yl)methoxy)benzyl)amino)methyl)pyrimidine-2-carbonitrile], the IC50 came out at 1.4 nM.
As for `Cc1c(COc2cc(OCc3cncc(C#N)c3)c(CN(C)Cc3ccnc(C#N)n3)cc2Cl)cccc1-c1cccc(OCCCN2CC[C@@H](O)C2)c1C` [Example 2045, (R)-4-(((5-chloro-2-((5-cyanopyridin-3-yl)methoxy)-4-((3′-(3-(3-hydroxypyrrolidin-1-yl)propoxy)-2,2′-dimethyl-[1,1′-biphenyl]-3-yl)methoxy)benzyl) (methyl)amino)methyl)pyrimidine-2-carbonitrile], the IC50 is 16.4 nM.
The compound `Cc1c(COc2cc(OCc3cncc(C#N)c3)c(CNCc3cncs3)cc2Cl)cccc1-c1cccc(OC2CCN(C)CC2)c1Cl` [Example 2046, 5-((4-chloro-5-((2′-chloro-2-methyl-3′-((1-methylpiperidin-4-yl)oxy)-[1,1′-biphenyl]-3-yl)methoxy)-2-(((thiazol-5-ylmethyl)amino)methyl)phenoxy)methyl)nicotinonitrile] yielded an IC50 of 32.3 nM.
The compound `Cc1c(COc2cc(OCc3cncc(C#N)c3)c(CNCc3cnc[nH]3)cc2Cl)cccc1-c1cccc(OC2CCN(C)CC2)c1Cl` [Example 2047, 5-((2-((((1H-imidazol-5-yl)methyl)amino)methyl)-4-chloro-5-((2′-chloro-2-methyl-3′-((1-methylpiperidin-4-yl)oxy)-[1,1′-biphenyl]-3-yl)methoxy)phenoxy)methyl)nicotinonitrile] yielded an IC50 of 3.5 nM.
Consider `Cc1c(COc2cc(OCc3cncc(C#N)c3)c(CN(C)Cc3cncs3)cc2Cl)cccc1-c1cccc(OC2CCN(C)CC2)c1Cl` [Example 2048, 5-((4-chloro-5-((2′-chloro-2-methyl-3′-((1-methylpiperidin-4-yl)oxy)-[1,1′-biphenyl]-3-yl)methoxy)-2-((methyl(thiazol-5-ylmethyl)amino)methyl)phenoxy)methyl)nicotinonitrile], for which the half-inhibitory concentration (IC50) was determined as 355 nM. Compared with the last compound, the IC50 is about 100-fold higher.
In turn, `Cc1c(COc2cc(OCc3cncc(C#N)c3)c(CN(C)Cc3cnc[nH]3)cc2Cl)cccc1-c1cccc(OC2CCN(C)CC2)c1Cl` [Example 2049, 5-((2-((((1H-imidazol-5-yl)methyl)(methyl)amino)methyl)-4-chloro-5-((2′-chloro-2-methyl-3′-((1-methylpiperidin-4-yl)oxy)-[1,1′-biphenyl]-3-yl)methoxy)phenoxy)methyl)nicotinonitrile] displayed a half-inhibitory concentration (IC50) of 1.6 nM.
With `Cc1c(COc2cc(OCc3cncnc3)c(CNCc3ncc[nH]3)cc2Cl)cccc1-c1cccc(OCCCN2CC[C@@H](O)C2)c1C` [Example 2050, (R)-1-(3-((3′-((4-((((1H-imidazol-2-yl)methyl)amino)methyl)-2-chloro-5-(pyrimidin-5-ylmethoxy)phenoxy)methyl)-2,2′-dimethyl-[1,1′-biphenyl]-3-yl)oxy)propyl)pyrrolidin-3-ol] the figure was 1.7 nM.
With `Cc1c(COc2cc(OCc3cncnc3)c(CNCc3cn[nH]c3)cc2Cl)cccc1-c1cccc(OCCCN2CC[C@@H](O)C2)c1C` [Example 2051, (R)-1-(3-((3′-((4-((((1H-pyrazol-4-yl)methyl)amino)methyl)-2-chloro-5-(pyrimidin-5-ylmethoxy)phenoxy)methyl)-2,2′-dimethyl-[1,1′-biphenyl]-3-yl)oxy)propyl)pyrrolidin-3-ol] the figure was 2 nM; with `Cc1c(COc2cc(OCc3cncc(C#N)c3)c(CNCc3cn[nH]c3)cc2Cl)cccc1-c1cccc(OC2CCC(N3CCCC3)CC2)c1Cl` (stereo not drawn) [Example 2052, 5-((2-((((1H-pyrazol-4-yl)methyl)amino)methyl)-4-chloro-5-((2′-chloro-2-methyl-3′-((4-(pyrrolidin-1-yl)cyclohexyl)oxy)-[1,1′-biphenyl]-3-yl)methoxy)phenoxy)methyl)nicotinonitrile], 9.6 nM; with `Cc1c(COc2cc(OCc3cncc(C#N)c3)c(CNCc3ncc[nH]3)cc2Cl)cccc1-c1cccc(OC2CCC(N3CCCC3)CC2)c1Cl` (stereo not drawn) [Example 2053, 5-((2-((((1H-imidazol-2-yl)methyl)amino)methyl)-4-chloro-5-((2′-chloro-2-methyl-3′-((4-(pyrrolidin-1-yl)cyclohexyl)oxy)-[1,1′-biphenyl]-3-yl)methoxy)phenoxy)methyl)nicotinonitrile], 2.9 nM.
In turn, `Cc1c(COc2cc(OCc3cccnn3)c(CNCc3cn[nH]c3)cc2Cl)cccc1-c1cccc(OCC2CCCN(C)C2)c1Cl` (stereo not drawn) [Example 2054, N-((1H-pyrazol-4-yl)methyl)-1-(5-chloro-4-((2′-chloro-2-methyl-3′-((1-methylpiperidin-3-yl)methoxy)-[1,1′-biphenyl]-3-yl)methoxy)-2-(pyridazin-3-ylmethoxy)phenyl)methanamine] returned an IC50 of 5.6 nM.
In turn, `Cc1c(COc2cc(OCc3cccnn3)c(CNCc3ncc[nH]3)cc2Cl)cccc1-c1cccc(OCC2CCCN(C)C2)c1Cl` (stereo not drawn) [Example 2055, N-((1H-imidazol-2-yl)methyl)-1-(5-chloro-4-((2′-chloro-2-methyl-3′-((1-methylpiperidin-3-yl)methoxy)-[1,1′-biphenyl]-3-yl)methoxy)-2-(pyridazin-3-ylmethoxy)phenyl)methanamine] displayed an IC50 of 3.1 nM.
Turning to `COc1cc(OCc2cccc(-c3cccc(OCC4CCCN(C)C4)c3Cl)c2C)c(Cl)cc1CNCc1cn[nH]c1` (stereo not drawn) [Example 2056, N-((1H-pyrazol-4-yl)methyl)-1-(5-chloro-4-((2′-chloro-2-methyl-3′-((1-methylpiperidin-3-yl)methoxy)-[1,1′-biphenyl]-3-yl)methoxy)-2-methoxyphenyl)methanamine], the 50% inhibitory concentration (IC50) was determined as 3.5 nM.
Turning to `COc1cc(OCc2cccc(-c3cccc(OCC4CCCN(C)C4)c3Cl)c2C)c(Cl)cc1CNCc1ncc[nH]1` (stereo not drawn) [Example 2057, N-((1H-imidazol-2-yl)methyl)-1-(5-chloro-4-((2′-chloro-2-methyl-3′-((1-methylpiperidin-3-yl)methoxy)-[1,1′-biphenyl]-3-yl)methoxy)-2-methoxyphenyl)methanamine], the IC50 was 6.3 nM. This IC50 is about 1.8-fold higher than that of the compound before.

By IC50 is commonly meant the concentration at which inhibition is half-maximal.
